Laboratory results reported in patent publication USRE39591E1, “6-O-substituted ketolides having antibacterial activity” (Abbott Laboratories, priority 1996, dated 2007).
In brackets after ≈: the same amount, converted by molar mass.

Tested on: up to 32 different microorganisms
Assay: in vitro antibacterial activity (MIC), agar dilution on Brain Heart Infusion (BHI) agar with Steers replicator
Type: cell-based
Settings: unit assumed
Protocol: Representative compounds of the present invention were assayed in vitro for antibacterial activity as follows: Twelve petri dishes containing successive aqueous dilutions of the test compound mixed with 10 mL of sterilized Brain Heart Infusion (BHI) agar (Difco 0148-01-5) were prepared. Each plate was inoculated with 1:100 (or 1:10 for slow-growing strains, such as Micrococcus and Streptococcus) dilutions of up to 32 different microorganisms, using a Steers replicator block. The inoculated plates were incubated at 35°-37° C. for 20 to 24 hours. In addition, a control plate, using BHI agar containing no test compound, was prepared and incubated at the beginning and end of each test.
An additional plate containing a compound having known susceptibility patterns for the organisms being tested and belonging to the same antibiotic class as the test compound was also prepared and incubated as a further control, as well as to provide test-to-test comparability. Erythromycin A was used for this purpose.
After incubation, each plate was visually inspected. The minimum inhibitory concentration (MIC) was defined as the lowest concentration of drug yielding no growth, a slight haze, or sparsely isolated colonies on the inoculum spot as compared to the growth control.

SMILES: CC[C@H]1OC(=O)[C@H](C)C(=O)[C@H](C)[C@@H](O[C@@H]2O[C@H](C)C[C@H](N(C)C)[C@H]2O)[C@@](C)(OCCCc2ccccc2)C[C@@H](C)C(=O)[C@H](C)[C@@H](O)[C@]1(C)O [Example 15, Compound of Formula (VIII): X is O, R is —CH2CH2CH2-Phenyl]
- MIC (Candida albicans CCH 442 (code TT)): > 100 µg/mL
- MIC (Enterococcus faecism ATCC 8043 (code II)): 1.56 µg/mL
- MIC (Escherichia coli DC-2 (code SS)): > 100 µg/mL
- MIC (Escherichia coli JUHL (code QQ)): > 100 µg/mL
- MIC (Escherichia coli SS (code RR)): 6.2 µg/mL
- MIC (Haemophilis influenzae DILL AMP R (code WW)): > 64 µg/mL
- MIC (Micrococcus luteus ATCC 4698 (code PP)): 3.1 µg/mL
- MIC (Micrococcus luteus ATCC 9341 (code OO)): 0.78 µg/mL
- MIC (Mycobacterium smegmatis ATCC 114 (code UU)): 6.2 µg/mL
- MIC (Nocardia Asteroides ATCC9970 (code VV)): 1.56 µg/mL
- MIC (Staphylococcus aureus 1775 (code GG)): > 100 µg/mL
- MIC (Staphylococcus aureus A5177 (code BB)): 6.2 µg/mL
- MIC (Staphylococcus aureus A-5278 (code CC)): > 100 µg/mL
- MIC (Staphylococcus aureus ATCC 6538P (code AA)): 6.2 µg/mL
- MIC (Staphylococcus aureus CMX 553 (code FF)): 6.2 µg/mL
- MIC (Staphylococcus aureus CMX 642A (code DD)): 6.2 µg/mL
- MIC (Staphylococcus aureus NCTC10649M (code EE)): 6.2 µg/mL
- MIC (Staphylococcus epidermidis 3519 (code HH)): 6.2 µg/mL
- MIC (Streptococcus Pneumonia 5649 (code ZZA)): 1 µg/mL
- MIC (Streptococcus Pneumonia 5979 (code ZZ)): 32 µg/mL
- MIC (Streptococcus Pneumonia ATCC6303 (code XX)): 1 µg/mL
- MIC (Streptococcus Pneumonia GYR 1171 (code YY)): 1 µg/mL
- MIC (Streptococcus agalactiae CMX 508 (code KK)): 0.2 µg/mL
- MIC (Streptococcus bovis A-5169 (code JJ)): 0.2 µg/mL
- MIC (Streptococcus pyogenes 930 (code MM)): 100 µg/mL
- MIC (Streptococcus pyogenes EES61 (code LL)): 0.39 µg/mL
- MIC (Streptococcus pyogenes PIU 2548 (code NN)): 3.1 µg/mL

SMILES: CCC1OC(=O)C(C)C(=O)C(C)C(OC2OC(C)CC(N(C)C)C2O)C(C)(OCC=Cc2cnc3ccc(C(=O)OC)cc3c2)CC(C)C(=O)C(C)C2NC(=O)OC12C (stereo not drawn) [Example 216, R is —CH2CH═CH-(6-methoxycarbonyl-3-quinolyl)]
- MIC (organism code AA): 0.2 µg/mL (≈ 0.243 µM)
- MIC (organism code BB): 0.2 µg/mL (≈ 0.243 µM)
- MIC (organism code CC): > 100 µg/mL
- MIC (organism code DD): 0.2 µg/mL (≈ 0.243 µM)
- MIC (organism code EE): 0.2 µg/mL (≈ 0.243 µM)
- MIC (organism code FF): 0.2 µg/mL (≈ 0.243 µM)
- MIC (organism code GG): > 100 µg/mL
- MIC (organism code HH): 0.2 µg/mL (≈ 0.243 µM)
- MIC (organism code II): 0.05 µg/mL (≈ 0.0607 µM)
- MIC (organism code JJ): 0.01 µg/mL (≈ 0.0121 µM)
- MIC (organism code KK): 0.02 µg/mL (≈ 0.0243 µM)
- MIC (organism code LL): 0.02 µg/mL (≈ 0.0243 µM)
- MIC (organism code MM): 0.78 µg/mL (≈ 0.947 µM)
- MIC (organism code NN): 0.2 µg/mL (≈ 0.243 µM)
- MIC (organism code OO): 0.05 µg/mL (≈ 0.0607 µM)
- MIC (organism code PP): 0.1 µg/mL (≈ 0.121 µM)
- MIC (organism code QQ): 100 µg/mL (≈ 121 µM)
- MIC (organism code RR): 0.39 µg/mL (≈ 0.473 µM)
- MIC (organism code SS): > 100 µg/mL
- MIC (organism code TT): > 100 µg/mL
- MIC (organism code UU): 0.78 µg/mL (≈ 0.947 µM)
- MIC (organism code VV): 0.1 µg/mL (≈ 0.121 µM)
- MIC (organism code WW): 2 µg/mL (≈ 2.43 µM)
- MIC (organism code XX): 0.015 µg/mL (≈ 0.0182 µM)
- MIC (organism code YY): 0.015 µg/mL (≈ 0.0182 µM)
- MIC (organism code ZZ): 0.5 µg/mL (≈ 0.607 µM)
- MIC (organism code ZZA): 0.25 µg/mL (≈ 0.303 µM)

SMILES: CCC1OC(=O)C(C)C(=O)C(C)C(OC2OC(C)CC(N(C)C)C2O)C(C)(OCC=Cc2ccc3nccnc3c2)CC(C)C(=O)C(C)C2NC(=O)OC12C (stereo not drawn) [Example 207, R is —CH2CH═CH-(6-quinoxalinyl)]
- MIC (organism code AA): 0.1 µg/mL (≈ 0.13 µM)
- MIC (organism code BB): 0.1 µg/mL (≈ 0.13 µM)
- MIC (organism code CC): > 100 µg/mL
- MIC (organism code DD): 0.1 µg/mL (≈ 0.13 µM)
- MIC (organism code EE): 0.1 µg/mL (≈ 0.13 µM)
- MIC (organism code FF): 0.1 µg/mL (≈ 0.13 µM)
- MIC (organism code GG): > 100 µg/mL
- MIC (organism code HH): 0.1 µg/mL (≈ 0.13 µM)
- MIC (organism code II): 0.02 µg/mL (≈ 0.0261 µM)
- MIC (organism code JJ): ≤ 0.005 µg/mL
- MIC (organism code KK): ≤ 0.005 µg/mL
- MIC (organism code LL): 0.01 µg/mL (≈ 0.013 µM)
- MIC (organism code MM): 1.56 µg/mL (≈ 2.03 µM)
- MIC (organism code NN): 0.2 µg/mL (≈ 0.261 µM)
- MIC (organism code OO): 0.01 µg/mL (≈ 0.013 µM)
- MIC (organism code PP): 0.1 µg/mL (≈ 0.13 µM)
- MIC (organism code QQ): 25 µg/mL (≈ 32.6 µM)
- MIC (organism code RR): 0.2 µg/mL (≈ 0.261 µM)
- MIC (organism code SS): 50 µg/mL (≈ 65.2 µM)
- MIC (organism code TT): > 100 µg/mL
- MIC (organism code UU): 0.39 µg/mL (≈ 0.509 µM)
- MIC (organism code VV): 0.02 µg/mL (≈ 0.0261 µM)
- MIC (organism code WW): 2 µg/mL (≈ 2.61 µM)
- MIC (organism code XX): 0.015 µg/mL (≈ 0.0196 µM)
- MIC (organism code YY): 0.015 µg/mL (≈ 0.0196 µM)
- MIC (organism code ZZ): 64 µg/mL (≈ 83.4 µM)
- MIC (organism code ZZA): 0.5 µg/mL (≈ 0.652 µM)

SMILES: CCC1OC(=O)C(C)C(=O)C(C)C(OC2OC(C)CC(N(C)C)C2O)C(C)(OCC=Cc2ccc(-c3ccon3)s2)CC(C)C(=O)C(C)C2NC(=O)OC12C (stereo not drawn) [Example 292, Compound of Formula (IX): L is CO, T is NH, R is —CH2CH═CH-(5-(3-ixoxazolyl)-2-thiophenyl)]
- MIC (organism code AA): 0.1 µg/mL
- MIC (organism code BB): 0.1 µg/mL
- MIC (organism code CC): > 100 µg/mL
- MIC (organism code DD): 0.1 µg/mL
- MIC (organism code EE): 0.1 µg/mL
- MIC (organism code FF): 0.1 µg/mL
- MIC (organism code GG): > 100 µg/mL
- MIC (organism code HH): 0.05 µg/mL
- MIC (organism code II): 0.02 µg/mL
- MIC (organism code JJ): ≤ 0.005 µg/mL
- MIC (organism code KK): 0.02 µg/mL
- MIC (organism code LL): 0.01 µg/mL
- MIC (organism code MM): 12.5 µg/mL
- MIC (organism code NN): 0.05 µg/mL
- MIC (organism code OO): 0.02 µg/mL
- MIC (organism code PP): 0.1 µg/mL
- MIC (organism code QQ): 50 µg/mL
- MIC (organism code RR): 0.2 µg/mL
- MIC (organism code SS): 100 µg/mL
- MIC (organism code TT): > 100 µg/mL
- MIC (organism code UU): 0.78 µg/mL
- MIC (organism code VV): 0.02 µg/mL
- MIC (organism code WW): 2 µg/mL
- MIC (organism code XX): 0.03 µg/mL
- MIC (organism code YY): 0.03 µg/mL
- MIC (organism code ZZ): 16 µg/mL
- MIC (organism code ZZA): 0.25 µg/mL
